# Data taken from patent US20250263436A1, “BROAD-SPECTRUM ANTIVIRAL DRUG FOR ENTEROVIRUS, AND APPLICATION” (WUHAN INSTITUTE OF VIROLOGY, CHINESE ACADEMY OF SCIENCES, priority 2020, published 2025).
# “And” between values parts separate entries of the source, which are not always exact repeats. Equal entries are not always repeated. Where no end group is shown, it is not given here.
# Test system: EV71
# Experiment: Inhibitory activity on EV71 in RD cells by CCK8 method
# Type: cell-based, enterovirus 71 (EV71)
# Details: for IC50: EV71 in RD cells, CCK8 method; for Inhibition rate on EV71 virus (%): RD cells, 0.1 MOI, 24 h, CCK8
# Protocol: (1) RD cells were plated in a 96-well plate at 100 μL per well.
# (2) When the cells grew to a confluence of 70%-80%, the DMEM medium containing 10% serum was replaced with a DMEM medium containing 2% serum.
# (§1) (3) The polypeptide drug was gradiently diluted with the DMEM containing 2% FBS into concentrations of 0.15625 μM, 0.3125 μM, 0.625 μM, 1.25 μM, 2.5 μM, and 5 μM, and then added to a new 96-well plate at 100 μL per well, with 3 replicate wells for each concentration.
# (4) The diluted virus was added to the above wells at 100 μL per well. The wells with no drug and no virus added and the wells with no drug but virus added were set as controls respectively, with a final concentration of virus of 0.1 MOI.
# (4) The mixture was transferred into the 96-well plate plated with cells for another 24 h of culture, and the inhibitory activity of the polypeptide on the virus was determined by a CCK8 kit.
# (5) The inhibition rates of different concentrations of the polypeptides on virus infection were calculated according to a calculation formula of: inhibition rate of polypeptide=(well with drug-well with virus)×100%/(well with no drug-well with virus).
# as §1, with “concentration. (4) The diluted virus was added to the above wells at 100 μL per well. The wells with no drug and no virus added and the wells with no drug but virus added were set as controls respectively, with a final concentration of virus of 0.1 MOI.” for “concentration.”
Compound,IC50,Inhibition rate on EV71 virus (%) (polypeptide 0.15625 μM),Inhibition rate on EV71 virus (%) (polypeptide 0.3125 μM),Inhibition rate on EV71 virus (%) (polypeptide 0.625 μM),Inhibition rate on EV71 virus (%) (polypeptide 1.25 μM),Inhibition rate on EV71 virus (%) (polypeptide 2.5 μM),Inhibition rate on EV71 virus (%) (polypeptide 5 μM)
YGRKKRRQRRRGSGGNTIEALFQ [GQ],1.78 µM,7.219% and 10.3851% and 5.4678%,14.8883% and 12.0678% and 14.91%,28.8333% and 30.5125% and 26.48%,43.1263% and 40.6161% and 31.07%,51.8367% and 58.9472% and 57.2507%,71.5094% and 77.9438% and 84.7439%
CC[C@H](C)[C@H](NC(=O)[C@H](C)NC(=O)[C@H](CO)NC(=O)[C@H](CCCNC(=N)N)NC(=O)[C@H](CC(N)=O)NC(=O)[C@H](CC(N)=O)NC(=O)CNC(=O)[C@H](CO)NC(=O)CNC(=O)[C@H](CCCNC(=N)N)NC(=O)[C@H](CCCNC(=N)N)NC(=O)[C@H](CCCNC(=N)N)NC(=O)[C@H](CCC(N)=O)NC(=O)[C@H](CCCNC(=N)N)NC(=O)[C@H](CCCNC(=N)N)NC(=O)[C@H](CCCCN)NC(=O)[C@H](CCCCN)NC(=O)[C@H](CCCNC(=N)N)NC(=O)CNC(=O)[C@@H](N)Cc1ccc(O)cc1)C(=O)NCC(=O)N[C@@H](CC(N)=O)C(=O)N[C@H](C(=O)N[C@H](C(=O)N[C@@H](CCC(=O)O)C(=O)N[C@@H](C)C(=O)N[C@@H](CC(C)C)C(=O)N[C@@H](Cc1ccccc1)C(=O)N[C@@H](CCC(N)=O)C(=O)O)[C@@H](C)CC)[C@@H](C)O [NQ],1.9 µM,4.278% and 5.368% and 8.337%,11.5056% and 17.809% and 19.7228%,16.7886% and 21.2091% and 24.9365%,41.6538% and 40.8779% and 50.5607%,51.933% and 60.1502% and 57.7744%,60.6122% and 74.6708% and 75.3331%
CC[C@H](C)[C@H](NC(=O)[C@H](C)NC(=O)[C@H](CO)NC(=O)CNC(=O)[C@H](CO)NC(=O)CNC(=O)[C@H](CCCNC(=N)N)NC(=O)[C@H](CCCNC(=N)N)NC(=O)[C@H](CCCNC(=N)N)NC(=O)[C@H](CCC(N)=O)NC(=O)[C@H](CCCNC(=N)N)NC(=O)[C@H](CCCNC(=N)N)NC(=O)[C@H](CCCCN)NC(=O)[C@H](CCCCN)NC(=O)[C@H](CCCNC(=N)N)NC(=O)CNC(=O)[C@@H](N)Cc1ccc(O)cc1)C(=O)NCC(=O)N[C@@H](CC(N)=O)C(=O)N[C@H](C(=O)N[C@H](C(=O)N[C@@H](CCC(=O)O)C(=O)N[C@@H](C)C(=O)N[C@@H](CC(C)C)C(=O)N[C@@H](Cc1ccccc1)C(=O)N[C@@H](CCC(N)=O)C(=O)O)[C@@H](C)CC)[C@@H](C)O [SAQ],2.9 µM,3.547% and 2.726% and 6.819%,8.964% and 7.902% and 11.0435%,14.4055% and 11.5364% and 18.402%,27.4779% and 24.0778% and 33.4848%,47.0158% and 47.2468% and 36.2572%,75.1367% and 61.8367% and 63.2191%
YGRKKRRQRRRGSGTIEALFQ [TQ],1.76 µM,3.314% and 5.356% and 7.23%,,33.3736% and 28.4011% and 30.3085%,35.3209% and 40.3898% and 46.2471%,59.3508% and 67.3559% and 55.2235%,71.3029% and 65.3559% and 69.2301%
YGRKKRRQRRRGSGNTIEALFQ [NTQ],2.28 µM,2.654% and 4.744% and 5.743%,14.83% and 10.2542% and 13.3898%,20.84% and 30.339% and 24.339%,39.17% and 47.6271% and 50.8202%,45.42% and 51.9492% and 59.661%,68.27% and 52.5424% and 61.6949%
CC[C@H](C)[C@H](NC(=O)[C@H](C)NC(=O)[C@H](CO)NC(=O)[C@H](CCCNC(=N)N)NC(=O)[C@H](CC(N)=O)NC(=O)[C@H](CC(N)=O)NC(=O)[C@H](Cc1ccc(O)cc1)NC(=O)[C@H](CCC(=O)O)NC(=O)CNC(=O)[C@H](CO)NC(=O)CNC(=O)[C@H](CCCNC(=N)N)NC(=O)[C@H](CCCNC(=N)N)NC(=O)[C@H](CCCNC(=N)N)NC(=O)[C@H](CCC(N)=O)NC(=O)[C@H](CCCNC(=N)N)NC(=O)[C@H](CCCNC(=N)N)NC(=O)[C@H](CCCCN)NC(=O)[C@H](CCCCN)NC(=O)[C@H](CCCNC(=N)N)NC(=O)CNC(=O)[C@@H](N)Cc1ccc(O)cc1)C(=O)NCC(=O)N[C@@H](CC(N)=O)C(=O)N[C@H](C(=O)N[C@H](C(=O)N[C@@H](CCC(=O)O)C(=O)N[C@@H](C)C(=O)N[C@@H](CC(C)C)C(=O)N[C@@H](Cc1ccccc1)C(=O)N[C@@H](CCC(N)=O)C(=O)O)[C@@H](C)CC)[C@@H](C)O [EQ],1.83 µM,6.885% and 4.675% and 10.9434%,10.2126% and 12.8194% and 16.4536%,21.5745% and 20.64% and 25.9399%,31.5814% and 30.7778% and 32.9503%,62.8263% and 54.1779% and 55.7124%,86.8541% and 90.3885% and 78.0023%
CC[C@H](C)[C@H](NC(=O)[C@H](C)NC(=O)[C@H](CO)NC(=O)[C@H](CCCNC(=N)N)NC(=O)CNC(=O)[C@H](CO)NC(=O)CNC(=O)[C@H](CCCNC(=N)N)NC(=O)[C@H](CCCNC(=N)N)NC(=O)[C@H](CCCNC(=N)N)NC(=O)[C@H](CCC(N)=O)NC(=O)[C@H](CCCNC(=N)N)NC(=O)[C@H](CCCNC(=N)N)NC(=O)[C@H](CCCCN)NC(=O)[C@H](CCCCN)NC(=O)[C@H](CCCNC(=N)N)NC(=O)CNC(=O)[C@@H](N)Cc1ccc(O)cc1)C(=O)NCC(=O)N[C@@H](CC(N)=O)C(=O)N[C@H](C(=O)N[C@H](C(=O)N[C@@H](CCC(=O)O)C(=O)N[C@@H](C)C(=O)N[C@@H](CC(C)C)C(=O)N[C@@H](Cc1ccccc1)C(=O)N[C@@H](CCC(N)=O)C(=O)O)[C@@H](C)CC)[C@@H](C)O [RSQ],2.6 µM,1.471% and 6.588% and 2.826%,11.34% and 21.2746% and 16.4228%,18.633% and 25.8298% and 26.1918%,40.5468% and 36.4575% and 35.2676%,53.4848% and 40.7778% and 47.2122%,58.6022% and 68.9642% and 62.4952%
YGRKKRRQRRRGSGIGNTIEALFQ [IQ],1.64 µM,12.0331% and 13.5849% and 7.368%,18.7401% and 22.4297% and 22.9573%,26.0539% and 31.1744% and 34.8606%,41.6022% and 42.578% and 47.4848%,55.7952% and 50.9781% and 60.5503%,73.2884% and 68.7332% and 83.2884%
YGRKKRRQRRRGSGAIGNTIEALFQ [AQ],2.99 µM,9.888% and 7.506% and 5.9715%,15.9607% and 11.702% and 12.6022%,26.3573% and 23.7158% and 19.5264%,33.3847% and 31.7366% and 38.7678%,58.9642% and 46.161% and 41.3092%,51.0435% and 51.8675% and 69.1952%
YGRKKRRQRRRGSGIEALFQ [IEQ],2.48 µM,11.724% and 8.44% and 7.627%,18.8643% and 15.5487% and 10.6223%,20.7161% and 25.7224% and 19.5166%,33.6936% and 35.484% and 28.4286%,45.6995% and 48.4526% and 57.4377%,69.4739% and 61.3527% and 68.272%
CC[C@H](C)[C@H](NC(=O)[C@H](C)NC(=O)[C@H](CO)NC(=O)[C@H](CCCNC(=N)N)NC(=O)[C@H](CC(N)=O)NC(=O)[C@H](CC(N)=O)NC(=O)[C@H](Cc1ccc(O)cc1)NC(=O)CNC(=O)[C@H](CO)NC(=O)CNC(=O)[C@H](CCCNC(=N)N)NC(=O)[C@H](CCCNC(=N)N)NC(=O)[C@H](CCCNC(=N)N)NC(=O)[C@H](CCC(N)=O)NC(=O)[C@H](CCCNC(=N)N)NC(=O)[C@H](CCCNC(=N)N)NC(=O)[C@H](CCCCN)NC(=O)[C@H](CCCCN)NC(=O)[C@H](CCCNC(=N)N)NC(=O)CNC(=O)[C@@H](N)Cc1ccc(O)cc1)C(=O)NCC(=O)N[C@@H](CC(N)=O)C(=O)N[C@H](C(=O)N[C@H](C(=O)N[C@@H](CCC(=O)O)C(=O)N[C@@H](C)C(=O)N[C@@H](CC(C)C)C(=O)N[C@@H](Cc1ccccc1)C(=O)N[C@@H](CCC(N)=O)C(=O)O)[C@@H](C)CC)[C@@H](C)O [YQ],1.96 µM,5.8298% and 7.33% and 11.0089%,15.102% and 10.7124% and 13.3881%,23.6157% and 20.9642% and 29.1606%,30.9365% and 28.1124% and 32.0401%,62.0331% and 53.8159% and 52.1987%,80.0886% and 71.2711% and 87.578%
